Source: patent US20200407370A1, “PEPTIDYLARGININE DEIMINASE INHIBITOR AND USE THEREOF” (Nanjing Transthera Biosciences Co., Ltd., priority 2018, published 2020)

Key:
Type in all cases: in vitro ADME
[1] = Liver microsomal stability in mouse; settings: mouse liver microsomes, 0.5 mg protein/mL, 1 μM compound, 37° C.
Description: (§1) Experimental Example 4:Evaluation on Liver Microsomal Stability of the Compound Disclosed Herein in Mouse/Rat
(§2) Objective: To evaluate the liver microsomal stability of the compound disclosed herein in mouse/rat
(§3) An appropriate amount of the compound was precisely weighed and dissolved in DMSO to prepare a 5.0 mM stock solution. 5.0 mM stock solution was diluted to 1.0 mM with DMSO, and then diluted with water to 10 μM, serving as a compound working solution for later use (DMSO content in the reaction system: 0.1% v/v).
as §3, with “methanol” for “DMSO”, “methanol,” for “DMSO,”, “10% methanol-water (v/v) solution” for “water”, “(methanol” for “(DMSO”, “1.1%” for “0.1%”
(§4) • (1) The liver microsomes (20 mg protein/mL) were taken from a −80° C. refrigerator, pre-incubated on a 37° C. water bath thermostatic oscillator for 3 min, and thawed for use. • (2) A mixed incubation system solution (without compounds or […]) was prepared according to the proportion of “composition of the incubation system” described above and pre-incubated on a 37° C. water bath thermostatic oscillator for 2 min. • (3) Control group (without β-NADPH): 30 μL of water and 30 μL of compound working solution (10 μM) were added to 240 μL of the mixed incubation system solution in step (2), and the mixture was vortexed for 30 s and mixed. The total volume of the mixture was 300 μL. The sample was duplicated. The reaction solution was placed on a 37° C. water bath thermostatic oscillator for incubation, and timing was started. Samples were collected at 0 min and 60 min. • (4) Sample group: 70 μL of β-NADPH solution (10 mM) and 70 μL of compound working solution (10 μM) were added to 560 μL of the mixed incubation system solution in step (2), and the total volume of the mixture was 700 μL. The mixture was vortexed for 30 s and mixed. The sample was duplicated. The reaction solution was placed on a 37° C. water bath thermostatic oscillator for incubation, and timing was started. Samples were collected at 0 min, 5 min, 10 min, 20 min, 30 min and 60 min after timing. • (5) The reaction solution was vortexed for 3 min, and centrifuged at 12,000 rpm for 5 min. • (6) 50 μL of the supernatant was added to 150 μL of water, and the resulting solution was vortexed and mixed before LC/MS/MS analysis.
(§5) The half-life (t1/2) and clearance (Cl) were calculated using the following first-order kinetic formula:
(§6) Vd=1/protein content in liver microsomes
(§7) Note: k denotes the slope of the logarithm of the remaining amount of a compound vs. time, Vd denotes apparent volume of distribution, C0 denotes drug concentration at 0 h, Ct denotes drug concentration at time t, t denotes time, e denotes natural number, and Clint denotes intrinsic clearance.

[2] = Liver microsomal stability in rat; settings: rat liver microsomes, 0.5 mg protein/mL, 1 μM compound, 37° C.
Description: as §1, §2, §3
as §3, with “methanol” for “DMSO”, “methanol,” for “DMSO,”, “10% methanol-water (v/v) solution” for “water”, “(methanol” for “(DMSO”, “1.1%” for “0.1%”
as §4, §5, §6, §7

[3] = Liver microsomal stability in human; settings: human liver microsomes, 0.5 mg protein/mL, 1 μM compound, 37° C.
Description: (§8) Experimental Example 2: Evaluation on Liver Microsomal Stability of the Compound Disclosed Herein in Human/Canine
as §3
(§9) • (1) The liver microsomes (20 mg protein/mL) were taken from a −80° C. refrigerator, pre-incubated on a 37° C. water bath thermostatic oscillator for 3 min, and thawed for use. • (2) A mixed incubation system solution (without compounds or β-NADPH) was prepared according to the proportion of “composition of the incubation system” described above and pre-incubated on a 37° C. water bath thermostatic oscillator for 2 min. • (3) Control group (without β-NADPH): 30 μL of water and 30 μL of compound working solution (10 μM) were added to 240 μL of the mixed incubation system solution in step (2), and the mixture was vortexed for 30 s and mixed. The total volume of the mixture was 300 μL. The sample was duplicated. The reaction solution was placed on a 37° C. water bath thermostatic oscillator for incubation, and timing was started. Samples were collected at 0 min and 60 min. • (4) Sample group: 70 μL of β-NADPH solution (10 mM) and 70 μL of compound working solution (10 μM) were added to 560 μL of the mixed incubation system solution in step (2), and the total volume of the mixture was 700 μL. The mixture was vortexed for 30 s and mixed. The sample was duplicated. The reaction solution was placed on a 37° C. water bath thermostatic oscillator for incubation, and timing was started. Samples were collected at 0 min, 5 min, 10 min, 20 min, 30 min and 60 min after timing. • (5) The reaction solution was vortexed for 3 min, and centrifuged at 12,000 rpm for 5 min. • (6) 50 μL of the supernatant was added to 150 μL of water, and the resulting solution was vortexed and mixed before LC/MS/MS analysis.
as §5, §6, §7

[4] = Liver microsomal stability in canine; settings: dog; canine liver microsomes, 0.5 mg protein/mL, 1 μM compound, 37° C.
Description: as §8, §3, §9, §5, §6, §7

| half-life at 1 μM [1] [h] | microsomal CLint at 1 μM [1] [µL/min/mg] | half-life at 1 μM [2] [h] | microsomal CLint at 1 μM [2] [µL/min/mg] | Compound | further results |
| --- | --- | --- | --- | --- | --- |
| 2.68 | 8.6 | – | – | COc1cc(C(=O)N2CCC[C@@H](N)C2)cc2nc(-c3cc4ccsc4n3CC3CCC3)n(C)c12 [Compound 22, (R)-(3-aminopiperidin-1-yl)(2-(6-(cyclobutylmethyl)-6H-thieno[2,3-b]pyrrol-5-yl)-7-methoxy-1-methyl-1H-benzo[d]imidazol-5-yl)methanone] | – |
| 11.6 | 2 | 5.25 | 4.4 | COc1cc(C(=O)N2CCC[C@@H](N)C2)cc2nc(-c3cc4ccsc4n3CC(C)C)n(C)c12 [Compound 20, (R)-(3-aminopiperidin-1-yl)(2-(6-isobutyl-6H-thieno[2,3-b]pyrrol-5-yl)-7-methoxy-1-methyl-1H-benzo[d]imidazol-5-yl)methanone] | – |
| – | – | 3.98 | 5.8 | CCn1c(-c2nc3cc(C(=O)N4CCC[C@@H](N)C4)cc(OC)c3n2C)cc2ccsc21 [Compound 3, (R)-(3-aminopiperidin-1-yl)(2-(6-ethyl-6H-thieno[2,3-b]pyrrol-5-yl)-7-methoxy-1-methyl-1H-benzo[d]imidazol-5-yl)methanone] | half-life at 1 μM [3]: 4.62 h; microsomal CLint at 1 μM [3]: 5 µL/min/mg |
| 3.98 | 5.8 | – | – | COc1cc(C(=O)N2CCC[C@@H](N)C2)cc2nc(-c3cc4cc(C)sc4n3CC3CC3)n(C)c12 [Compound 23, (R)-(3-aminopiperidin-1-yl)(2-(6-(cyclopropylmethyl)-2-methyl-6H-thieno[2,3-b]pyrrol-5-yl)-7-methoxy-1-methyl-1H-benzo[d]imidazol-5-yl)methanone] | – |
| 4.13 | 5.6 | – | – | COc1cc(C(=O)N2CCC[C@@H](N)C2)cc2nc(-c3cc4ccsc4n3CC3CC3)n(C)c12 [Compound 18, (R)-(3-aminopiperidin-1-yl)(2-(6-(cyclopropylmethyl)-6H-thieno[2,3-b]pyrrol-5-yl)-7-methoxy-1-methyl-1H-benzo[d]imidazol-5-yl)methanone] | half-life at 1 μM [3]: 3.5 h; microsomal CLint at 1 μM [3]: 6.6 µL/min/mg |
| – | – | – | – | CCn1c(-c2nc3cc(C(=O)N4CCC[C@@H](N)C4)cc(OC)c3n2C)cc2cc(C)sc21 [Compound 9, (R)-(3-aminopiperidin-1-yl)(2-(6-ethyl-2-methyl-6H-thieno[2,3-b]pyrrol-5-yl)-7-methoxy-1-methyl-1H-benzo[d]imidazol-5-yl)methanone] | half-life at 1 μM [4]: 23.1 h; microsomal CLint at 1 μM [4]: 1 µL/min/mg; t1/2 [2]: →∞ |
| – | – | 2.97 | 7.8 | COc1cc(C(=O)N2CCC[C@@H](N)C2)cc2nc(-c3cc4ccsc4n3CC(F)(F)F)n(C)c12 [Compound 21, (R)-(3-aminopiperidin-1-yl)(7-methoxy-1-methyl-2-(6-(2,2,2-trifluoroethyl)-6H-thieno[2,3-b]pyrrol-5-yl)-1H-benzo[d]imidazol-5-yl)methanone] | – |
